Activity calls are given as the source filed them. No cut-off for these calls is given here.
Assays:
MIA PaCa-2 [1] = assay: Antiproliferative activity against human MIA PaCa-2 cells harboring KRAS G12C mutant assessed as inhibition of cell growth; assay type: functional, cell-based
[2] = test system: Protein cereblon/GTPase KRas (Homo sapiens), P01116+Q96SW2 [G12C]; assay: Protac activity at CRBN/KRAS G12C mutant in human NCI-H358 cells assessed as induction of KRAS G12C protein degradation at 10 uM preincubated for 1 hr with proteasome inhibitor, MG-132 followed by compound addition and measured after 24 hrs by Western blot analysis; assay type: cell-based
MIA PaCa-2 [3] = assay: Antiproliferative activity against human MIA PaCa-2 cells harboring KRAS G12C mutant assessed as inhibition of cell proliferation incubated for 48 hrs by MTT assay; assay type: functional, cell-based; conditions: MIA PaCa-2, 48 h
[4] = test system: Protein cereblon/GTPase KRas (Homo sapiens), P01116+Q96SW2 [G12C]; assay: Protac activity at CRBN/KRAS G12C mutant in human NCI-H358 cells assessed as induction of KRAS G12C protein degradation at 1 uM incubated for 24 hrs by Western blot analysis; assay type: cell-based
NCI-H358 [5] = assay: Antiproliferative activity against human NCI-H358 cells harboring KRAS G12C mutant assessed as inhibition of cell proliferation incubated for 48 hrs by MTT assay; assay type: functional, cell-based; conditions: NCI-H358, 48 h
[6] = test system: GTPase KRas (Homo sapiens), P01116 [G12C]; assay: In vivo target occupancy at KRAS G12C mutant in human MIA PaCa-2 cells xenografted athymic BALB/c nude mouse measured at 30 mins; assay type: functional, cell-based
[7] = test system: von Hippel-Lindau disease tumor suppressor/GTPase KRas (Homo sapiens), P01116+P40337 [G12C]; assay: Protac activity at VHL/KRAS G12C mutant in human NCI-H358 cells assessed as induction of KRAS G12C protein degradation at 10 uM incubated for 24 hrs by Western blot analysis; assay type: cell-based
NCI-H358 [8] = assay: Inhibition of ERK phosphorylation in human NCI-H358 cells at 1 to 10 uM incubated for 24 hrs by Western blot analysis; assay type: cell-based; conditions: dose 1-10 µM
[9] = test system: von Hippel-Lindau disease tumor suppressor/GTPase KRas (Homo sapiens), P01116+P40337 [G12C]; assay: Protac activity at VHL/KRAS G12C mutant in human NCI-H358 cells assessed as induction of KRAS G12C protein degradation at 10 uM preincubated for 1 hr with proteasome inhibitor, MG-132 followed by compound addition and measured after 24 hrs by Western blot analysis; assay type: cell-based
[10] = test system: von Hippel-Lindau disease tumor suppressor/GTPase KRas (Homo sapiens), P01116+P40337 [G12C]; assay: Protac activity at VHL/KRAS G12C mutant in human NCI-H358 cells assessed as induction of KRAS G12C protein degradation at 1 uM incubated for 24 hrs by Western blot analysis; assay type: cell-based
NCI-H358 [11] = assay: Antiproliferative activity against human NCI-H358 cells harboring KRAS G12C mutant assessed as inhibition of cell growth; assay type: functional, cell-based
[12] = test system: von Hippel-Lindau disease tumor suppressor/GTPase KRas (Homo sapiens), P01116+P40337 [G12C]; assay: Protac activity at VHL/KRAS G12C mutant in human NCI-H358 cells assessed as induction of KRAS G12C protein degradation incubated for 24 hrs by Western blot analysis; assay type: cell-based; conditions: dose 5-25 µM
GTPase KRas = GTPase KRas (Homo sapiens, UniProt P01116, G12C); assay: Induction of KRAS G12C degradation in human MIA PaCa-2 cells assessed as reduction in KRAS G12C protein level incubated for 24 hrs by immunoblotting analysis; assay type: cell-based
MIA PaCa-2 [13] = assay: Antiproliferative activity against human MIA PaCa-2 cells harboring KRAS G12C mutant assessed as inhibition of cell growth incubated for 5 days by celltiter-glow luminescent cell viability assay; assay type: functional, cell-based; conditions: MIA PaCa-2, 120 h
NCI-H358 [14] = assay: Antiproliferative activity against human NCI-H358 cells harboring KRAS G12C mutant assessed as inhibition of cell growth incubated for 5 days by celltiter-glow luminescent cell viability assay; assay type: functional, cell-based; conditions: NCI-H358, 120 h

Chain of GTPase KRas (Homo sapiens), P01116 [G12C] (P01116 whole entry G12C): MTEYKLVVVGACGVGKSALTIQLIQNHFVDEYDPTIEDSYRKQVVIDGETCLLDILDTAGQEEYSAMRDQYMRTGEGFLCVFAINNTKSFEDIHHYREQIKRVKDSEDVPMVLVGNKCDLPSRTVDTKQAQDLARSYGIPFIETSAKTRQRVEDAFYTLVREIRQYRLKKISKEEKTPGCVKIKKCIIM
Chain of GTPase KRas (P01116 whole entry G12C): as above

C=CC(=O)N1CCN(c2nc(=O)n(-c3c(C)ccnc3C(C)C)c3nc(-c4c(O)cccc4F)c(F)cc23)[C@@H](C)C1 [SOTORASIB]
IC50 (MIA PaCa-2 [1]): 0.022 µM

C=CC(=O)N1CCN(c2nc(=O)n(-c3ccc(C(=O)NCCCC(=O)Nc4cccc5c4CN(C4CCC(=O)NC4=O)C5=O)cc3C(C)C)c3cc(-c4ccccc4Cl)c(Cl)cc23)[C@@H](C)C1 (some centres not stated)
Activity [2]: inactive | IC50 (MIA PaCa-2 [3]): 17.1 µM | Activity [4]: inactive | IC50 (NCI-H358 [5]): 22.7 µM

C=CC(=O)N1CCN(c2ncnc3c(F)c(-c4c(O)cccc4F)c(Cl)cc23)CC1
Occ [6]: > 75%

C=CC(=O)N1CCN(c2nc(=O)n(-c3ccccc3C(C)C)c3cc(-c4ccccc4Cl)c(Cl)cc23)[C@@H](C)C1
IC50 (MIA PaCa-2 [3]): 0.77 µM | IC50 (NCI-H358 [5]): 1.48 µM

C=CC(=O)N1CCN(c2nc(=O)n(-c3ccc(C(=O)NCc4cn(CCOCCOCCOCCOCC(=O)N[C@H](C(=O)N5C[C@H](O)C[C@H]5C(=O)NCc5ccc(-c6scnc6C)cc5)C(C)(C)C)nn4)cc3C(C)C)c3cc(-c4ccccc4Cl)c(Cl)cc23)[C@@H](C)C1
Activity [7]: Active | inhibition (NCI-H358 [8]): Active | Activity [9]: inactive | Activity [10]: inactive | IC50 (MIA PaCa-2 [3]): 24.3 µM | IC50 (NCI-H358 [5]): 17.1 µM

C=C(F)C(=O)N1CCN(c2nc(OC[C@@H]3CCCN3C)nc3c2CCN(c2cccc4cccc(Cl)c24)C3)C[C@@H]1CC#N [ADAGRASIB]
IC50 (NCI-H358 [11]): 0.001 µM

C=CC(=O)N1CCN(c2nc(=O)n(-c3ccc(C(=O)NCCCCCC(=O)N[C@H](C(=O)N4C[C@H](O)C[C@H]4C(=O)NCc4ccc(-c5scnc5C)cc4)C(C)(C)C)cc3C(C)C)c3cc(-c4ccccc4Cl)c(Cl)cc23)[C@@H](C)C1
Activity [7]: Active | Activity [9]: inactive | Activity [10]: inactive | IC50 (MIA PaCa-2 [3]): 24.2 µM | IC50 (NCI-H358 [5]): 14.2 µM

C=CC(=O)N1CCN(c2nc(=O)n(-c3ccc(C(=O)NCCOCCOCCOCCOCC(=O)N[C@H](C(=O)N4C[C@H](O)C[C@H]4C(=O)NCc4ccc(-c5scnc5C)cc4)C(C)(C)C)cc3C(C)C)c3cc(-c4ccccc4Cl)c(Cl)cc23)[C@@H](C)C1
Activity [7]: Active | inhibition (NCI-H358 [8]): Active | Activity [9]: inactive | Activity [10]: inactive | IC50 (MIA PaCa-2 [3]): 17.9 µM | Activity [12]: Dose-Dependent Effect | IC50 (NCI-H358 [5]): 11.1 µM

C=CC(=O)N1CCN(c2nc(=O)n(-c3ccc(C(=O)O)cc3C(C)C)c3cc(-c4ccccc4Cl)c(Cl)cc23)[C@@H](C)C1
IC50 (MIA PaCa-2 [3]): > 10 µM | IC50 (NCI-H358 [5]): > 10 µM

C=C(F)C(=O)N1CCN(c2nc(OC[C@@H]3CCCN3CCCOCCC(=O)N[C@H](C(=O)N3C[C@H](O)C[C@H]3C(=O)NCc3ccc(-c4scnc4C)cc3)C(C)(C)C)nc3c2CCN(c2cccc4cccc(Cl)c24)C3)C[C@@H]1CC#N
EC50 (GTPase KRas): 0.32 µM

C=CC(=O)N1CCN(c2nc(NCCCN3CCN(CCCNc4cccc5c4C(=O)N(C4CCC(=O)NC4=O)C5=O)CC3)nc3c(F)c(-c4cc(O)cc5ccccc45)c(Cl)cc23)CC1 (configuration not stated)
IC50 (MIA PaCa-2 [13]): 4.14 µM | IC50 (NCI-H358 [14]): 0.51 µM
